Assay results taken from patent publication US9428456B2, “1-[m-carboxamido(hetero)aryl-methyl]-heterocyclyl-carboxamide derivatives” (Actelion Pharmaceuticals Ltd., priority 2012, dated 2016).

Molecular target: CXCR7 (Homo sapiens (Human), UniProt P25106)
Assay: PathHunter CHO-K1 CXCR7 b-arrestin assay (agonistic activity)
Type: cell-based
Conditions: PathHunter CHO-K1 CXCR7 b-arrestin cell line
Description: The CXCl12 receptor and CXCR7 agonistic activities of the compounds of formula (I) are determined in accordance with the following experimental method.
The assay is using the PathHunter™ CHO-K1 CXCR7 b-arrestin cell line from DiscoverX. The system is based on the Enzyme Fragment Complementation Technology. Two complementing fragments of the b-galactosidase enzyme are expressed within stably transfected cells. The larger portion of b-gal, termed EA for Enzyme Acceptor, is fused to the C-terminus of b-arrestin 2. The smaller fragment, termed ProLink™ tag, is fused to CXCR7 at the C-terminus. Upon activation, b-arrestin is recruited which forces the interaction of ProLink and EA, allowing complementation of the two fragments of b-gal and the formation of a functional enzyme which is capable of hydrolysing the substrate and generating a chemiluminescent signal.
CHO-K1 CXCR7 b-arrestin cells are detached from culture dishes with a cell dissociation buffer (Invitrogen, #13151-014) and collected in growing medium (F12 HAMS 90% (v/v)/FCS 10% (v/v), Penicilin/streptomycin 1% (v/v)). 5000 cells per well (in 20 μl) are seeded in a 384 well plate (white-walled, clear bottom; BD Falcon #353274). The plate is incubated at 37° C./5% CO2 for 24 hours. Medium is then replaced by 20 μl OPTIMEM (Invitrogen #31985) for 3 to 4 hours. Test compounds are dissolved at 10 mM in DMSO and serially diluted in DMSO to 200× of the final concentration for dose response curves. Compounds are then diluted 1:33.3 in HBSS1×. 5 μl/well of HBSS1×/20 mM HEPES/0.2% BSA are added to the assay plate followed by addition of 5 μl/well of diluted compounds. CXCL12 (Peprotech #300-28A) may be used as a reference agonist. The plate is incubated for 90 minutes at 37° C. 12 μl of detection reagent (Path Hunter Detection Kit, DiscoveRx, #93-0001) is transferred to the assay plate and to the plate is incubated for 1 hour at room temperature. Luminescent signal is read in a microplate reader (FLUOstar Optima, bmg). The calculated EC50 values may fluctuate depending on the daily cellular assay performance. Fluctuations of this kind are known to those skilled in the art. Average EC50 values from several measurements are given as geometric mean values.

Chain of CXCR7 (P25106 whole entry): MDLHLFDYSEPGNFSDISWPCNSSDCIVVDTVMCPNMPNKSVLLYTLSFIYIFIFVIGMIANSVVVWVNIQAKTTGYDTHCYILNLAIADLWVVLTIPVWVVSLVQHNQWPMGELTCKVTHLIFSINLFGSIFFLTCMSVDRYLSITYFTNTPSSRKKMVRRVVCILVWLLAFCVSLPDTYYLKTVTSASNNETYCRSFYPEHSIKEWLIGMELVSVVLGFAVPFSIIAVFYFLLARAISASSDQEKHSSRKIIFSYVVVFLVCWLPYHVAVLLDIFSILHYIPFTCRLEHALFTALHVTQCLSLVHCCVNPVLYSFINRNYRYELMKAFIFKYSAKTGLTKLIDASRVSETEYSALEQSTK
Chain of CXCR7 (P32121 whole entry partner): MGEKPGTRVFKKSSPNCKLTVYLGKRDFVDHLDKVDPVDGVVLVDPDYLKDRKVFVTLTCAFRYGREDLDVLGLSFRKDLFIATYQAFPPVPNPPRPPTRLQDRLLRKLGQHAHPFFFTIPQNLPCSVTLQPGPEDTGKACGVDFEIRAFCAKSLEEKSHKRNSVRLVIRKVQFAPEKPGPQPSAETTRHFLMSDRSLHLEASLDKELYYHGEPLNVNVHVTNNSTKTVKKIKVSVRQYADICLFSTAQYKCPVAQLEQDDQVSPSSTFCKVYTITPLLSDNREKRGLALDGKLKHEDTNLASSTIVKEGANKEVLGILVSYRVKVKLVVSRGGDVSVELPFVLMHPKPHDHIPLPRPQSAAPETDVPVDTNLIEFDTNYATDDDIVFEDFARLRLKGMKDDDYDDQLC

`CC(c1cccc(NC(=O)c2ccc(N3CCCC3)cn2)c1)N1CCC(C(=O)NC2CCCCC2)CC1` (racemic) [Example 1.188] and `CC(c1cccc(NC(=O)c2cnc(N3CCCC3)s2)c1)N1CCC(C(=O)NC2CCCCC2)CC1` (racemic) [Example 1.194] are within 1.5-fold of each other in EC50: 215 nM for the first, 303 nM for the second.

Compared with `CC(C)Cc1cc(C(=O)Nc2cccc(C(C)N3CCC(C(=O)NC4CCCCC4)CC3)c2)n(C)n1` (racemic) [Example 1.189], `Cc1cc(C)nc(C(=O)Nc2cccc(C(C)N3CCC(C(=O)NC4CCCCC4)CC3)c2)c1` (racemic) [Example 1.192] is 6.8-fold higher in EC50: 15 nM for the first, 102 nM for the second.

Compared with `CC(c1cccc(NC(=O)c2cnc3[nH]ccc3c2)c1)N1CCC(C(=O)NC2CCCCC2)CC1` (racemic) [Example 1.190], `Cc1ccnc(C(=O)Nc2cccc(C(C)N3CCC(C(=O)NC4CCCCC4)CC3)c2)c1` (racemic) [Example 1.191] is 2.1-fold lower in EC50: 134 nM for the first, 64 nM for the second.

Going from `CC(c1cccc(NC(=O)c2ccncn2)c1)N1CCC(C(=O)NC2CCCCC2)CC1` (racemic) [Example 1.193] to `Cc1cc(C(=O)Nc2cccc(C(C)N3CCC(C(=O)NC4CCCCC4)CC3)c2)ncn1` (racemic) [Example 1.198], the EC50 rises from 23 nM to 92 nM (4-fold). The first is the more potent here.

Going from `CC(c1cccc(NC(=O)c2ncccn2)c1)N1CCC(C(=O)NC2CCCCC2)CC1` (racemic) [Example 1.195] to `CCN(CC)c1ccc(C(=O)Nc2cccc(C(C)N3CCC(C(=O)NC4CCCCC4)CC3)c2)cn1` (racemic) [Example 1.196], the EC50 rises from 176 nM to 491 nM (2.8-fold).

First: CC(C)(C)NC(=O)C1CCN(Cc2cccc(NC(=O)C3CCOC3)c2)CC1 (racemic) [Example 1.256]
Second: CC(C)(C)NC(=O)C1CCN(Cc2cccc(NC(=O)C3CC3(C)C)c2)CC1 (racemic) [Example 1.257]
The EC50 of the first is 32-fold higher: 222 nM for the first, 7 nM for the second.

Going from `CC(C)(C)NC(=O)C1CCN(Cc2cccc(NC(=O)C3CNc4ccccc43)c2)CC1` (racemic) [Example 1.265] to `CC(C)(C)NC(=O)C1CCN(Cc2cccc(NC(=O)C3Cc4ccccc43)c2)CC1` (racemic) [Example 1.271], the EC50 falls from 15 nM to 1 nM (15-fold). The second is the more potent here.

Compared with `CC(C)(C)NC(=O)C1CCN(Cc2cccc(NC(=O)C3COc4ccccc43)c2)CC1` (racemic) [Example 1.266], `CC(C)(C)NC(=O)C1CCN(Cc2cccc(NC(=O)C3CCc4ccccc43)c2)CC1` (racemic) [Example 1.267] is 3-fold lower in EC50: 6 nM for the first, 2 nM for the second.

Going from `CC(C)(C)NC(=O)C1CCN(Cc2cccc(NC(=O)C(O)c3ccccc3Cl)c2)CC1` (racemic) [Example 1.270] to `CC(C)(C)NC(=O)C1CCN(Cc2cccc(NC(=O)Cc3ccc(F)cc3Cl)c2)C1` (racemic) [Example 2.097, rac-1-{3-[2-(2-Chloro-4-fluoro-phenyl)-acetylamino]-benzyl}-pyrrolidine-3-carboxylic acid tert-butylamide], the EC50 rises from 6 nM to 37 nM (6.2-fold).

Going from `CCNC(=O)C1CCCN(Cc2cccc(NC(=O)c3cncc(C)c3)c2)CC1` (racemic) [Example 1.287] to `CCC(C)NC(=O)C1CCCN(Cc2cccc(NC(=O)c3cncc(C)c3)c2)CC1` (racemic) [Example 1.288], the EC50 falls from 181 nM to 33 nM (5.5-fold).

First: Cc1cncc(C(=O)Nc2cccc(CN3CCCC(C(=O)NC(C)C)CC3)c2)c1 (racemic) [Example 1.289]
Second: Cc1cncc(C(=O)Nc2cccc(CN3CCCC(C(=O)NC(C)(C)C)CC3)c2)c1 (racemic) [Example 1.290]
The EC50 of the first is 2.3-fold higher: 113 nM for the first, 49 nM for the second.

Going from `Cc1cncc(C(=O)Nc2cccc(CN3CCCC(C(=O)NC4CCCCC4)CC3)c2)c1` (racemic) [Example 1.291] to `Cc1cncc(C(=O)Nc2cccc(CN3CC[C@H](C(=O)NC4CCCCC4)C[C@@H]3C)c2)c1` (racemic) [Example 2.104, rac-N-[3-((2S*,4S*)-4-Cyclohexylcarbamoyl-2-methyl-piperidin-1-ylmethyl)-phenyl]-5-methyl-nicotinamide], the EC50 falls from 134 nM to 4 nM (34-fold).

First: CCC(c1cccc(NC(=O)c2cncc(C)c2)c1)N1CCC(C(=O)NC2CCCCC2)CC1 (racemic) [Example 1.307]
Second: CCC(c1cccc(NC(=O)c2cccc(C(F)(F)F)n2)c1)N1CCC(C(=O)NC2CCCCC2)CC1 (racemic) [Example 1.308]
The EC50 of the first is 4-fold higher: 350 nM for the first, 87 nM for the second. The second is the more potent here.

Going from `Cc1cncc(C(=O)Nc2cccc(CN3CCC(C(=O)NC(C)(C)C)C3)c2)c1` (racemic) [Example 2.096, rac-N-[3-(3-tert-Butylcarbamoyl-pyrrolidin-1-ylmethyl)-phenyl]-5-methyl-nicotinamide] to `Cc1cncc(C(=O)Nc2cccc(CN3CC[C@H](C(=O)NC(C)(C)C)C[C@@H]3C)c2)c1` (racemic) [Example 2.103, rac-N-[3-((2S*,4S*)-4-tert-Butylcarbamoyl-2-methyl-piperidin-1-ylmethyl)-phenyl]-5-methyl-nicotinamide], the EC50 falls from 28 nM to 17 nM (1.6-fold).

Going from `CC(C)CNC(=O)C1CCN(Cc2cccc(NC(=O)c3cccc(C(F)(F)F)n3)c2)C1` (racemic) [Example 2.098, rac-6-Trifluoromethyl-pyridine-2-carboxylic acid [3-(3-isobutylcarbamoyl-pyrrolidin-1-ylmethyl)-phenyl]-amide] to `O=C(Nc1cccc(CN2CCC(C(=O)NC3CCCCC3)C2)c1)c1cccc(C(F)(F)F)n1` (racemic) [Example 2.099, rac-6-Trifluoromethyl-pyridine-2-carboxylic acid [3-(3-cyclohexylcarbamoyl-pyrrolidin-1-ylmethyl)-phenyl]-amide], the EC50 falls from 193 nM to 60 nM (3.2-fold). The second is the more potent here.

First: O=C(Cc1ccc(F)cc1Cl)Nc1cccc(CN2CCC(C(=O)NC3CCCCC3)C2)c1 (racemic) [Example 2.100, rac-1-{3-[2-(2-Chloro-4-fluoro-phenyl)-acetylamino]-benzyl}-pyrrolidine-3-carboxylic acid cyclohexylamide]
Second: O=C(Cc1ccccc1Cl)Nc1cccc(CN2CCC(C(=O)NC3CCCCC3)CC2)c1 [Example 1.025]
The EC50 of the first is 54-fold higher: 161 nM for the first, 3 nM for the second.

`C[C@H]1C[C@@H](C(=O)NC(C)(C)C)CCN1Cc1cccc(NC(=O)c2cccc(C(F)(F)F)n2)c1` (racemic) [Example 2.102, rac-6-Trifluoromethyl-pyridine-2-carboxylic acid [3-((2S*,4S*)-4-tert-butylcarbamoyl-2-methyl-piperidin-1-ylmethyl)-phenyl]-amide] and `COc1cccc(C(=O)Nc2cccc(CN3CCC(C(=O)NC4CCCCC4)CC3)c2)c1` [Example 1.023] are the same in EC50: 4 nM for the first, 4 nM for the second.

Going from `Cc1sc(C(=O)Nc2cccc(CN3CCC(C(=O)NC4CCCCC4)CC3)c2)cc1CC(C)C` [Example 1.004] to `CC(C)C(=O)Nc1cccc(CN2CCC(C(=O)NC3CCCCC3)CC2)c1` [Example 1.016], the EC50 rises from 40 nM to 121 nM (3-fold). The first is the more potent here.

Compared with `Cc1cc(C(=O)Nc2cccc(CN3CCC(C(=O)NC4CCCCC4)CC3)c2)no1` [Example 1.005], `O=C(Nc1cccc(CN2CCC(C(=O)NC3CCCCC3)CC2)c1)c1ccncn1` [Example 1.006] is 9-fold lower in EC50: 18 nM for the first, 2 nM for the second. The second is the more potent here.

First: O=C(Nc1cccc(CN2CCC(C(=O)NC3CCCCC3)CC2)c1)c1ccc2ccccc2c1 [Example 1.007]
Second: O=C(Cc1ccc2ccccc2c1)Nc1cccc(CN2CCC(C(=O)NC3CCCCC3)CC2)c1 [Example 1.015]
The EC50 of the first is 13-fold lower: 6 nM for the first, 78 nM for the second. The first is the more potent here.

`O=C(Nc1cccc(CN2CCC(C(=O)NC3CCCCC3)CC2)c1)c1n[nH]c2ccccc12` [Example 1.008] and `O=C(Nc1cccc(CN2CCC(C(=O)NC3CCCCC3)CC2)c1)c1nccc2ccccc12` [Example 1.021] are within 1.5-fold of each other in EC50: 35 nM for the first, 39 nM for the second.

Compared with `COc1ccccc1C(=O)Nc1cccc(CN2CCC(C(=O)NC3CCCCC3)CC2)c1` [Example 1.009], `O=C(Nc1cccc(CN2CCC(C(=O)NC3CCCCC3)CC2)c1)c1ccccc1` [Example 1.014] is 5.7-fold lower in EC50: 17 nM for the first, 3 nM for the second.

`O=C(Nc1cccc(CN2CCC(C(=O)NC3CCCCC3)CC2)c1)c1cccc2ccncc12` [Example 1.010] and `O=C(Nc1cccc(CN2CCC(C(=O)NC3CCCCC3)CC2)c1)c1cncc2ccccc12` [Example 1.022] are within 1.5-fold of each other in EC50: 68 nM for the first, 97 nM for the second.

`O=C(Cc1ccccc1)Nc1cccc(CN2CCC(C(=O)NC3CCCCC3)CC2)c1` [Example 1.011] and `O=C(Cc1cccc(Cl)c1)Nc1cccc(CN2CCC(C(=O)NC3CCCCC3)CC2)c1` [Example 1.024] are within 1.5-fold of each other in EC50: 7 nM for the first, 10 nM for the second.

First: O=C(Nc1cccc(CN2CCC(C(=O)NC3CCCCC3)CC2)c1)c1ccsc1 [Example 1.012]
Second: O=C(Nc1cccc(CN2CCC(C(=O)NC3CCCCC3)CC2)c1)c1cc(F)cc(F)c1 [Example 1.019]
The EC50 of the first is 2-fold higher: 4 nM for the first, 2 nM for the second.

`O=C(Cc1ccccn1)Nc1cccc(CN2CCC(C(=O)NC3CCCCC3)CC2)c1` [Example 1.013] and `CC(C)(C)CC(=O)Nc1cccc(CN2CCC(C(=O)NC3CCCCC3)CC2)c1` [Example 1.020] are within 1.5-fold of each other in EC50: 20 nM for the first, 25 nM for the second.

`O=C(Nc1cccc(CN2CCC(C(=O)NC3CCCCC3)CC2)c1)C1CCCC1` [Example 1.017] was tested, and the EC50 was 29 nM.
